Results on 15 compounds are retold here after ChEMBL document CHEMBL1148617, “Design, synthesis, and structure-activity relationships of 1-,3-,8-, and 9-substituted-9-deazaxanthines at the human A2B adenosine receptor” (J Med Chem, 2006).

Usually inhibition stands for how much of the control response was suppressed. The term Ki denotes the equilibrium dissociation constant of an inhibitor or competing ligand from its target. Low values mean higher affinity, high ones lower affinity.

T2 sequence (P29274 whole entry): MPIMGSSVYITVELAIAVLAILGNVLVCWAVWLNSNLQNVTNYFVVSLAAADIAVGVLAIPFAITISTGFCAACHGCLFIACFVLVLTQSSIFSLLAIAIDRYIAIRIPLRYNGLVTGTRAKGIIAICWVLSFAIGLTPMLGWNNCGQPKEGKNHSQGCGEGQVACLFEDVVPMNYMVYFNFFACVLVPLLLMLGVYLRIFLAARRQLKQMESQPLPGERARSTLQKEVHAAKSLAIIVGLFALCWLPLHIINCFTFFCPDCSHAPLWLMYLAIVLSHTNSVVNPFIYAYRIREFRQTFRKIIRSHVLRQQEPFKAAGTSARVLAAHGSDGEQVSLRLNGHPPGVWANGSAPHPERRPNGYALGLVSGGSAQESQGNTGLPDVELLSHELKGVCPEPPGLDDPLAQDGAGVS

The first test deals with T1, Adenosine receptor A2b (Homo sapiens) (UniProt P29275).
T1 sequence (whole entry): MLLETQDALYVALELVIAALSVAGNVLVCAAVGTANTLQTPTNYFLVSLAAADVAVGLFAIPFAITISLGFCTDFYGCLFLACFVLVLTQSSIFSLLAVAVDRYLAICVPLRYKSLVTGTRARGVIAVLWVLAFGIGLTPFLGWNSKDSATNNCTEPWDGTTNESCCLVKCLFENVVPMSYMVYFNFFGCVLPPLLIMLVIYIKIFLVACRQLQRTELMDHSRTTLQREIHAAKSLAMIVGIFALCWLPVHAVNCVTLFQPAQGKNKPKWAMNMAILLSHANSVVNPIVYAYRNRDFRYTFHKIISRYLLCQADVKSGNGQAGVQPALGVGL
The test can be described thus: Displacement of [3H]DPCPX from recombinant human adenosine A2B receptor expressed in HEK293 cells at 0.1 uM. It is filed as cell-based. (Displacement assays read how much labelled ligand stays bound in the presence of the test substance.)
`CCCn1c(=O)c2[nH]c(-c3ccc(OCC(=O)Nc4ccc(S(=O)(=O)c5ccccc5)cc4)cc3)cc2n(CCC)c1=O`: the inhibition stood at 85%.
Same read-out and setting: the value for `COCCCn1c(=O)n(C)c(=O)c2[nH]c(-c3ccc(OCC(=O)NC4CCCC4)cc3)cc21` was 16%; that for `Cn1c(=O)c2[nH]c(-c3cccc(OCC(=O)Nc4ccc(Br)cc4)c3)cc2n(C)c1=O` was 73%; that for `CCCn1c(=O)c2[nH]c(-c3ccc(OC(C)C(=O)Nc4ccccc4)cc3)cc2n(CCC)c1=O` (stereo not given) was 92%.
On the same count and under the same terms, for `CCCn1c(=O)c2[nH]c(-c3ccc(OC(CC)C(=O)Nc4ccc(F)cc4)cc3)cc2n(CCC)c1=O` (stereo not given) the value was 100%; for `CCCn1c(=O)c2[nH]c(-c3ccc(OCC(=O)Nc4ccc(O)cc4)cc3)cc2n(CCC)c1=O`, 79%.
Still for that read-out and setting: the value for `CCCn1c(=O)c2[nH]c(-c3ccc(OCC(=O)Nc4ccccn4)cc3)cc2n(CCC)c1=O` was 83%.
With `CCn1c(=O)c2[nH]c(-c3ccc(OCC(=O)Nc4ccccc4)cc3)cc2n(CC)c1=O`, the inhibition was determined as 91%.
Turning to `CCCn1c(=O)c2[nH]c(-c3ccc(OCC(=O)Nc4ccc(CC(=O)OCC)cc4)cc3)cc2n(CCC)c1=O`, the inhibition amounted to 58%.
Still for that read-out and setting: for `Cn1c(=O)c2[nH]c(-c3ccc(OCC(=O)Nc4ccc(CCN)cc4)cc3)cc2n(C)c1=O` the value was 34%.
On to `CCCn1c(=O)c2[nH]c(-c3ccc(OCC(=O)Nc4ccc(F)cc4)cc3)c(Br)c2n(CCC)c1=O`, for which the inhibition was found to be 72%.
The same measure, in the same setting: the value for `Cn1c(=O)c2[nH]c(-c3ccc(OCC(=O)Nc4ccc([N+](=O)[O-])cc4)cc3)cc2n(C)c1=O` was 82%; that for `CCCn1c(=O)c2[nH]c(-c3ccc(OCC(=O)Nc4ccccc4)cc3)c(Br)c2n(CCC)c1=O` was 73%; that for `COc1cc(OCC(=O)Nc2ccccc2)ccc1-c1cc2c([nH]1)c(=O)n(C)c(=O)n2C` was 55%.
Still for that read-out and setting: the value for `CCCn1c(=O)c2[nH]c(-c3ccc(OCC(=O)Nc4ccc(OCc5ccccc5)cc4)cc3)cc2n(CCC)c1=O` was 76%.

A further test concerns the target T2, Adenosine receptor A2a (Homo sapiens, UniProt P29274).
Experiment: not given
Compound `CCCn1c(=O)c2[nH]c(-c3ccc(OCC(=O)Nc4ccc(S(=O)(=O)c5ccccc5)cc4)cc3)cc2n(CCC)c1=O` gave a Ki of 282 nM.
Regarding `COCCCn1c(=O)n(C)c(=O)c2[nH]c(-c3ccc(OCC(=O)NC4CCCC4)cc3)cc21`, the Ki is 427 nM.
The compound `Cn1c(=O)c2[nH]c(-c3cccc(OCC(=O)Nc4ccc(Br)cc4)c3)cc2n(C)c1=O` gave a Ki of 67.6 nM.
On the same count and under the same terms, the value for `CCCn1c(=O)c2[nH]c(-c3ccc(OC(C)C(=O)Nc4ccccc4)cc3)cc2n(CCC)c1=O` (stereo not given) was 105 nM; that for `CCCn1c(=O)c2[nH]c(-c3ccc(OC(CC)C(=O)Nc4ccc(F)cc4)cc3)cc2n(CCC)c1=O` (stereo not given) was 19.1 nM; that for `CCCn1c(=O)c2[nH]c(-c3ccc(OCC(=O)Nc4ccc(O)cc4)cc3)cc2n(CCC)c1=O` was 56.2 nM.
Still for that read-out and setting: the value for `CCCn1c(=O)c2[nH]c(-c3ccc(OCC(=O)Nc4ccccn4)cc3)cc2n(CCC)c1=O` was 309 nM; that for `CCn1c(=O)c2[nH]c(-c3ccc(OCC(=O)Nc4ccccc4)cc3)cc2n(CC)c1=O` was 186 nM; that for `CCCn1c(=O)c2[nH]c(-c3ccc(OCC(=O)Nc4ccc(CC(=O)OCC)cc4)cc3)cc2n(CCC)c1=O` was 240 nM.
The same measure, in the same setting: for `Cn1c(=O)c2[nH]c(-c3ccc(OCC(=O)Nc4ccc(CCN)cc4)cc3)cc2n(C)c1=O` the value was 166 nM.
`CCCn1c(=O)c2[nH]c(-c3ccc(OCC(=O)Nc4ccc(F)cc4)cc3)c(Br)c2n(CCC)c1=O` showed a Ki of 20 nM.
`Cn1c(=O)c2[nH]c(-c3ccc(OCC(=O)Nc4ccc([N+](=O)[O-])cc4)cc3)cc2n(C)c1=O` gave a Ki of 81.3 nM.
On to `CCCn1c(=O)c2[nH]c(-c3ccc(OCC(=O)Nc4ccccc4)cc3)c(Br)c2n(CCC)c1=O`, for which the Ki is 42.7 nM.
The same measure, in the same setting: for `COc1cc(OCC(=O)Nc2ccccc2)ccc1-c1cc2c([nH]1)c(=O)n(C)c(=O)n2C` the value was 1050 nM.
Still for that read-out and setting: for `CCCn1c(=O)c2[nH]c(-c3ccc(OCC(=O)Nc4ccc(OCc5ccccc5)cc4)cc3)cc2n(CCC)c1=O` the value was 18.6 nM.

A further test addresses T3, Adenosine receptor A2b (Homo sapiens, UniProt P29275).
T3 sequence (P29275 whole entry): T1 sequence (whole entry)
Experiment: not given
In turn, `CCCn1c(=O)c2[nH]c(-c3ccc(OCC(=O)Nc4ccc(S(=O)(=O)c5ccccc5)cc4)cc3)cc2n(CCC)c1=O` had a Ki of 17.4 nM.
`COCCCn1c(=O)n(C)c(=O)c2[nH]c(-c3ccc(OCC(=O)NC4CCCC4)cc3)cc21` showed a Ki of 263 nM.
In the case of `Cn1c(=O)c2[nH]c(-c3cccc(OCC(=O)Nc4ccc(Br)cc4)c3)cc2n(C)c1=O`, the affinity, expressed as Ki, was 44.7 nM.
On the same count and under the same terms, for `CCCn1c(=O)c2[nH]c(-c3ccc(OC(C)C(=O)Nc4ccccc4)cc3)cc2n(CCC)c1=O` (stereo not given) the value was 5.13 nM; for `CCCn1c(=O)c2[nH]c(-c3ccc(OC(CC)C(=O)Nc4ccc(F)cc4)cc3)cc2n(CCC)c1=O` (stereo not given), 4.79 nM.
Consider `CCCn1c(=O)c2[nH]c(-c3ccc(OCC(=O)Nc4ccc(O)cc4)cc3)cc2n(CCC)c1=O`, for which the Ki was 34.7 nM.
The same measure, in the same setting: the value for `CCCn1c(=O)c2[nH]c(-c3ccc(OCC(=O)Nc4ccccn4)cc3)cc2n(CCC)c1=O` was 26.9 nM.
On the same count and under the same terms, for `CCn1c(=O)c2[nH]c(-c3ccc(OCC(=O)Nc4ccccc4)cc3)cc2n(CC)c1=O` the value was 7.76 nM; for `CCCn1c(=O)c2[nH]c(-c3ccc(OCC(=O)Nc4ccc(CC(=O)OCC)cc4)cc3)cc2n(CCC)c1=O`, 60.3 nM.
In turn, `Cn1c(=O)c2[nH]c(-c3ccc(OCC(=O)Nc4ccc(CCN)cc4)cc3)cc2n(C)c1=O` gave a Ki of 186 nM.
On to `CCCn1c(=O)c2[nH]c(-c3ccc(OCC(=O)Nc4ccc(F)cc4)cc3)c(Br)c2n(CCC)c1=O`, for which affinity was put at a Ki of 12.6 nM.
Same read-out and setting: for `Cn1c(=O)c2[nH]c(-c3ccc(OCC(=O)Nc4ccc([N+](=O)[O-])cc4)cc3)cc2n(C)c1=O` the value was 6.92 nM.
Same read-out and setting: for `CCCn1c(=O)c2[nH]c(-c3ccc(OCC(=O)Nc4ccccc4)cc3)c(Br)c2n(CCC)c1=O` the value was 24.5 nM; for `COc1cc(OCC(=O)Nc2ccccc2)ccc1-c1cc2c([nH]1)c(=O)n(C)c(=O)n2C`, 69.2 nM.
On the same count and under the same terms, the value for `CCCn1c(=O)c2[nH]c(-c3ccc(OCC(=O)Nc4ccc(OCc5ccccc5)cc4)cc3)cc2n(CCC)c1=O` was 8.91 nM.

The next test has as its target T1, Adenosine receptor A2b (Homo sapiens). The test can be described thus: Displacement of [3H]DPCPX from recombinant human adenosine A2B receptor expressed in HEK293 cells at 0.01 uM.
`CCCn1c(=O)c2[nH]c(-c3ccc(OCC(=O)Nc4ccc(S(=O)(=O)c5ccccc5)cc4)cc3)cc2n(CCC)c1=O`: the inhibition amounted to 10%.
Same read-out and setting: the value for `COCCCn1c(=O)n(C)c(=O)c2[nH]c(-c3ccc(OCC(=O)NC4CCCC4)cc3)cc21` was 8%; that for `Cn1c(=O)c2[nH]c(-c3cccc(OCC(=O)Nc4ccc(Br)cc4)c3)cc2n(C)c1=O` was 15%.
Same read-out and setting: the value for `CCCn1c(=O)c2[nH]c(-c3ccc(OC(C)C(=O)Nc4ccccc4)cc3)cc2n(CCC)c1=O` (stereo not given) was 50%; that for `CCCn1c(=O)c2[nH]c(-c3ccc(OC(CC)C(=O)Nc4ccc(F)cc4)cc3)cc2n(CCC)c1=O` (stereo not given) was 68%; that for `CCCn1c(=O)c2[nH]c(-c3ccc(OCC(=O)Nc4ccc(O)cc4)cc3)cc2n(CCC)c1=O` was 24%.
Still for that read-out and setting: for `CCCn1c(=O)c2[nH]c(-c3ccc(OCC(=O)Nc4ccccn4)cc3)cc2n(CCC)c1=O` the value was 33%; for `CCn1c(=O)c2[nH]c(-c3ccc(OCC(=O)Nc4ccccc4)cc3)cc2n(CC)c1=O`, 45%; for `CCCn1c(=O)c2[nH]c(-c3ccc(OCC(=O)Nc4ccc(CC(=O)OCC)cc4)cc3)cc2n(CCC)c1=O`, 32%.
Turning to `Cn1c(=O)c2[nH]c(-c3ccc(OCC(=O)Nc4ccc(CCN)cc4)cc3)cc2n(C)c1=O`, the inhibition was found to be 7%.
Same read-out and setting: the value for `CCCn1c(=O)c2[nH]c(-c3ccc(OCC(=O)Nc4ccc(F)cc4)cc3)c(Br)c2n(CCC)c1=O` was 30%; that for `Cn1c(=O)c2[nH]c(-c3ccc(OCC(=O)Nc4ccc([N+](=O)[O-])cc4)cc3)cc2n(C)c1=O` was 52%; that for `CCCn1c(=O)c2[nH]c(-c3ccc(OCC(=O)Nc4ccccc4)cc3)c(Br)c2n(CCC)c1=O` was 16%.
Same read-out and setting: the value for `COc1cc(OCC(=O)Nc2ccccc2)ccc1-c1cc2c([nH]1)c(=O)n(C)c(=O)n2C` was 12%; that for `CCCn1c(=O)c2[nH]c(-c3ccc(OCC(=O)Nc4ccc(OCc5ccccc5)cc4)cc3)cc2n(CCC)c1=O` was 49%.

The next test addresses T2, Adenosine receptor A2a. Briefly: Displacement of [3H]ZM-241385 from recombinant human adenosine A2A receptor expressed in HeLa cells at 0.1 uM.
As to `CCCn1c(=O)c2[nH]c(-c3ccc(OCC(=O)Nc4ccc(S(=O)(=O)c5ccccc5)cc4)cc3)cc2n(CCC)c1=O`, the inhibition came to 27%.
On the same count and under the same terms, the value for `COCCCn1c(=O)n(C)c(=O)c2[nH]c(-c3ccc(OCC(=O)NC4CCCC4)cc3)cc21` was 0%; that for `Cn1c(=O)c2[nH]c(-c3cccc(OCC(=O)Nc4ccc(Br)cc4)c3)cc2n(C)c1=O` was 45%.
Turning to `CCCn1c(=O)c2[nH]c(-c3ccc(OC(C)C(=O)Nc4ccccc4)cc3)cc2n(CCC)c1=O` (stereo not given), the inhibition amounted to 42%.
With `CCCn1c(=O)c2[nH]c(-c3ccc(OC(CC)C(=O)Nc4ccc(F)cc4)cc3)cc2n(CCC)c1=O` (stereo not given), the inhibition turned out to be 88%.
Same read-out and setting: for `CCCn1c(=O)c2[nH]c(-c3ccc(OCC(=O)Nc4ccc(O)cc4)cc3)cc2n(CCC)c1=O` the value was 51%; for `CCCn1c(=O)c2[nH]c(-c3ccc(OCC(=O)Nc4ccccn4)cc3)cc2n(CCC)c1=O`, 34%; for `CCn1c(=O)c2[nH]c(-c3ccc(OCC(=O)Nc4ccccc4)cc3)cc2n(CC)c1=O`, 22%.
As for `CCCn1c(=O)c2[nH]c(-c3ccc(OCC(=O)Nc4ccc(CC(=O)OCC)cc4)cc3)cc2n(CCC)c1=O`, the inhibition worked out at 10%.
On to `Cn1c(=O)c2[nH]c(-c3ccc(OCC(=O)Nc4ccc(CCN)cc4)cc3)cc2n(C)c1=O`, for which the inhibition was determined as 38%.
Turning to `CCCn1c(=O)c2[nH]c(-c3ccc(OCC(=O)Nc4ccc(F)cc4)cc3)c(Br)c2n(CCC)c1=O`, the inhibition was found to be 70%.
Take `Cn1c(=O)c2[nH]c(-c3ccc(OCC(=O)Nc4ccc([N+](=O)[O-])cc4)cc3)cc2n(C)c1=O`: the inhibition is 30%.
As for `CCCn1c(=O)c2[nH]c(-c3ccc(OCC(=O)Nc4ccccc4)cc3)c(Br)c2n(CCC)c1=O`, the inhibition worked out at 54%.
The same measure, in the same setting: the value for `COc1cc(OCC(=O)Nc2ccccc2)ccc1-c1cc2c([nH]1)c(=O)n(C)c(=O)n2C` was 13%; that for `CCCn1c(=O)c2[nH]c(-c3ccc(OCC(=O)Nc4ccc(OCc5ccccc5)cc4)cc3)cc2n(CCC)c1=O` was 60%.
